Experimental data taken from patent US20260183396A1, “CXCR3 OVEREXPRESSION IN CAR-NK CELLS PRIMES MIGRATION/HOMING INTO THE TUMOR MICROENVIRONMENT” (DANA-FARBER CANCER INSTITUTE, INC., priority 2022, published 2026).

Tests used:
NK cells [1] = assay: Immune cell toxicity assays, NK cells; assay type: cell-based; details: 72 hours of high dose exposure; regardless of IL-2 or co-culture with TILs
Experimental: Immune Cell Toxicity Assays. […] Following treatment, samples were stained with anti-CD45, anti-CD3, anti-CD4, anti-CD8, and anti-CD56 antibodies (Table 1), as well as Zombie Green live/dead (Biolegend 423111) and analyzed by flow cytometry as described above. Data were analyzed using FlowJo software version 10.5.3. As an orthogonal measure of viability, CellTiter-Glo was performed on primary T-cells and NK cells.
CellTiter-Glo luminescent cell viability assay. Cell viability was assessed using the CellTiter-Glo Luminescent Cell Viability assay (Promega, G7571) according to manufacturer's instructions. […] All conditions were tested in triplicate and plates were read on a Tecan Infinite Mplex Microplate Reader.

MPM PDOTS = assay: PDOTS live/dead quantification ex vivo; assay type: cell-based
Experimental: Patient-derived organotypic tumor spheroids (PDOTS). […] Briefly, fresh tumor specimens were minced in a 15 mL falcon tube in prewarmed to 37° C. full media (DMEM from Thermo Fisher Scientific+10% FBS)+100 U/mL collagenase type IV (Life Technologies) and 50 μg/mL dNase I (Roche) for approximately 20 minutes using sterile scissors and pipetting. Dissociated material was strained over 100-μm filter and 40-μm filters to generate S1 (>100 μm), S2 (40-100 μm), and S3 (<40 μm) spheroid fractions, which were subsequently maintained in ultralow-attachment (ULA) tissue culture plates (Corning). […] S2 fractions were used for ex vivo culture by resuspending them in type I rat tail collagen (Corning) at a concentration of 2.8 mg/mL prior to loading into the center gel region of the 3-D microfluidic culture device (AIM Biotech) and incubation for 40 minutes at 37° C. in humidity chambers to allow for polymerization. […]
PDOTS immunofluorescence and live/dead quantification. […] Following incubation with the dyes (20 minutes at room temperature in the dark for AO/PI or 45 minutes for Hoechst 33342/PI), images were captured using 4× objective of a Nikon Eclipse 80i fluorescence microscope equipped with automated motorized stage (Proscan), Z-stack (Prior), and Zyla 5.5 sCMOS camera (Andor). […] Live and dead cell quantitation was performed by measuring total cell area of each dye.

STING = STING immunoblotting in NK cells and TILs; assay type: cell-based, human
Experimental: Immunoblotting. […] Imaging of blots and was performed using the LI-COR Odyssey system.

MPM tumor cell lines = assay: 3D vascular model of NK cell migration; assay type: cell-based, human; details: presence and absence of the vascular barrier
Experimental: 3D vascular model. To generate the tumor-vascular model, H226 spheroids were mixed with collagen rat tail hydrogel (2.5 mg/ml) and injected into the center gel region of the 3D microfluidic chamber (10-15 μL per each microfluidic chamber). After incubation for 30 minutes at 37° C. in sterile humidity chambers, the side wall of one flanked channel (media channel) was coated with a 150 μg/ml collagen solution in PBS to allow for better adhesion of eCs to the channel. After 15 mins, the channel was washed once with media. To create the 3D vessel, 25 μL cell suspension of 3×10^6 cells/ml human umbilical vein endothelial cells (HUVECs; C2519AS, Lonza) were injected in the media channel coated with collagen. The channel was rotated twice to create a confluent hollow-lumen 3D vessel. To allow the cells to attach to the media-gel interface and form a monolayer, the chip was incubated with cells face down for 15 mins. Next, 50 μL cell suspension was reinjected, and the chip was flipped to cover the upper part of the 3D vascular channel. After 90 mins of incubation in the humidity chamber at 37° C., cell culture media was gently added to both channels and further incubated to form a confluent monolayer. After vessel formation, NK cells (labelled with cell tracker) were added to the 3D vessel at 2:1 E:T ratio. […] NK cell migration+/−vessel was quantified at 24 hours. Image capture and analysis was performed using a fluorescence confocal microscope and processing software. The 3D vascular channels were rinsed in PBS and fixed with 4% PFA for 15 min at room temperature. Cell membranes were permeabilized with 0.1% Triton X-100 for 5 min at room temperature and washed twice with PBS. HUVEC cells were stained for F-actin with green phalloidin (Thermo Fisher Scientific A12379) and Hoechst 33342. Images were captured on a Nikon Eclipse 80i fluorescence microscope equipped with Z-stack (Prior) and CoolSNAP CCD camera (Roper Scientific).

MPM cell lines = assay: NK cell killing assay; assay type: cell-based, human; details: NK co-culture, only with MPM cells expressing STING
Experimental: NK cell killing assay. Target cells (MPM cell lines) were detached via trypsinization, labelled with CellTrace Violet (CTV, LifeTechnologies) and then seeded in a 96-well plate at a cell density of 25,000 cells per well. […] After 6 hours of co-culture, the cells were harvested and incubated with an antibody for the apoptosis marker Annexin V (PE) and the live/dead stain 7-AAD (Biolegend). Cells were analyzed on a BD LSRFortessa with FACSDiva software (BD Biosciences). Data were analyzed using FlowJo software version 10.5.3. The apoptotic cells were evaluated by gating on the CTV+ population and represented as percentage live or dead (late apoptotic) cells. Apoptotic cell analysis was conducted using NK cells extracted from as many as 4 different healthy donors per target MPM cell line to incorporate baseline donor variability.

IRF3 = IRF3 immunofluorescence in PDOTS; assay type: cell-based, human; details: PDOTS following treatment
Experimental: PDOTS immunofluorescence and live/dead quantification. Dual labeling was performed by loading microfluidic devices with Nexcelom ViaStain acridine orange/propidium iodide (AO/PI) Staining Solution (Nexcelom, CS2-0106) or 10 μg/mL solution of Hoechst 33342 (Thermo Fisher Scientific) and 1 μg/mL solution of PI (Thermo Fisher Scientific). Following incubation with the dyes (20 minutes at room temperature in the dark for AO/PI or 45 minutes for Hoechst 33342/PI), images were captured using 4× objective of a Nikon Eclipse 80i fluorescence microscope equipped with automated motorized stage (Proscan), Z-stack (Prior), and Zyla 5.5 sCMOS camera (Andor). Image capture and analysis were performed using NIS-Elements AR software package. Live and dead cell quantitation was performed by measuring total cell area of each dye. For additional immunofluorescence studies, PDOTS were washed with PBS and blocked with FcR blocking reagent (Miltenyi) for 30 minutes at room temperature. Directly conjugated antibodies CD326 EpCAM-AlexaFluor647 (clone 9C4), CD45-AlexaFluor647 (HI30) (BioLegend), and mesothelin-PE (clone REA1057, Miltenyi) were diluted 1:50 in 10 μg/mL solution of Hoechst 33342 (Thermo Fisher Scientific) in PBS and loaded into microfluidic devices for 1-hour incubation at room temperature in the dark. Spheroids were washed twice with PBS with 0.1% Tween20 followed by PBS. […]

NK cells [2] = assay: Autophagy staining (CYTO-ID); assay type: cell-based, human; details: NK cells following ADU-S100 treatment
Experimental: Autophagy Staining. Autophagy was assessed by vacuole staining to identify autophagolysosomes using the CYTO-ID Autophagy detection kit 2.0 (Enzo ENZ-51031-0050) according to manufacturer's instructions. Briefly, 5×10^5 isolated primary NK cells or TILs were incubated in T-cell growth media (TCGM) with 500 U/mL IL-2, which was refreshed every time the media was changed to ensure proper growth and selection. CLQ from the kit (Enzo 51005-CLQ) was used starting at the recommended initial dose of 10 μM compared with DMSO control. […] The media was collected, and flow cytometry was performed after staining following manufacturer's instructions with CYTO-ID Green Detection Reagent 2.

Nc1ncnc2c1ncn2[C@@H]1O[C@@H]2COP(=O)([S-])O[C@@H]3[C@H](O)[C@@H](COP([O-])(=S)O[C@H]2[C@H]1O)O[C@H]3n1cnc2c(N)ncnc21.[Na+].[Na+] (stereo partly drawn) [ADU-S100]
cytotoxicity in human NK cells (NK cells [1]): no significant cytotoxicity | specimens approximating clinical criteria for response with >30% decrease in cell area, p<0.05 (MPM PDOTS; 35 MPM patient specimens ex vivo): 7 specimens | primary NK cell response in MPM PDOTS (MPM PDOTS; combined treatment with primary NK cells, cells from 2 out of 3 donors): significantly enhanced | time within which STING was degraded (STING; NK cells): 3 to 6 h | T-cell STING degradation (STING; T-cells, STING phosphorylated and activated): minimally degraded | NK cell migration (MPM tumor cell lines): enhanced NK cell migration | apoptosis of tumor cells (MPM cell lines): enhanced | IRF3 localisation (IRF3): nuclear translocation | autophagic flux (NK cells [2]): elevated
